Patent US11453657B2 (GlaxoSmithKline Intellectual Property Development Limited, priority 2018, dated 2022)
pIC50: −log10 of the molar value. Where a name gives a salt, the structure may show the parent alone. Read-outs that look alike come from different tables or passages of the source.

System: P. falciparum infected erythrocytes
Assay: P. falciparum growth inhibition assay ([3H]hypoxanthine incorporation)
Type: cell-based, Plasmodium falciparum
Conditions: Plasmodium falciparum, Erythrocyte; for IC50: hydrochloride salt of the example, same assay, read-out: PfIC50 Media (uM), (HCl)
Procedure: P. falciparum Growth Inhibition Assay.
The sensitivity of P. falciparum infected erythrocytes to the compound was determined in duplicate using the [3H]hypoxanthine incorporation method with an inoculum of 0.5% parasitemia (ring stage) and 2% hematocrit. The parasites were grown in RPMI 1640, 25 mM HEPES and supplemented with 5% Albumax. Plates are incubated at 37° C., 5% CO2, 5% O2, 90% N2. After 24 h of incubation, [3H]hypoxanthine is added and plates are incubated for another 24 h. After that period, plates are harvested on a glass fiber filter using a TOMTEC Cell harvester 96. Filters are dried and melt on scintillator sheets and the bound radioactivity is quantified by use of a Wallac Microbeta Trilux (Model 1450 LS—Perkin Elmer). IC50s are determined using Grafit 7 program (Grafit program; Erithacus Software, Horley, Surrey, United Kingdom).
Each example compound was tested generally in accordance with the above-mentioned assay and the PfIC50 value for each compound is reported in the Table below and according to the following: […]

[1] = [3H]hypoxanthine incorporation, 0.5% parasitemia, 2% hematocrit, 48 h, read-out: PfIC50 Media
[2] = hydrochloride salt, read-out: average PfIC50 of the hydrochloride salt

Compound	pIC50 [1]	pIC50 (read-out: average PfIC50)	IC50	pIC50 [2]
O=C(c1ccc(OC[C@H](O)Cn2cnnn2)cc1F)N1CC[C@H](c2ccc(F)cc2)C1 [Example 26, (2-fluoro-4-((R)-2-hydroxy-3-(1H-tetrazol-1-yl)propoxy)phenyl)((R)-3-(4-fluorophenyl)pyrrolidin-1-yl)methanone]	6.30 to 7.00			
O=C(c1ccc(OC[C@H](O)Cn2ncnn2)cc1F)N1CC[C@H](c2ccc(F)cc2)C1 [Example 27, (2-fluoro-4-((R)-2-hydroxy-3-(2H-tetrazol-2-yl)propoxy)phenyl)((R)-3-(4-fluorophenyl)pyrrolidin-1-yl)methanone]	> 7.00	≥ 7.30		
O=C(c1ccc(OC[C@H](O)Cn2cnnn2)cc1)N1CC[C@H](c2ccc(Cl)cc2)C1 [Example 28, ((R)-3-(4-chlorophenyl)pyrrolidin-1-yl)(4-((R)-2-hydroxy-3-(1H-tetrazol-1-yl)propoxy)phenyl)methanone]	> 7.00			
O=C(c1ccc(OC[C@H](O)Cn2cncn2)cc1)N1CC[C@H](c2ccc(Cl)cc2)C1 [Example 30, ((R)-3-(4-chlorophenyl)pyrrolidin-1-yl) (4-((R)-2-hydroxy-3-(1H-1,2,4-triazol-1-yl)propoxy)phenyl)methanone]	> 7.00			
O=C(c1ccc(OC[C@H](O)Cn2nccn2)cc1)N1CC[C@H](c2ccc(Cl)cc2)C1 [Example 31, ((R)-3-(4-chlorophenyl)pyrrolidin-1-yl)(4-((R)-2-hydroxy-3-(2H-1,2,3-triazol-2-yl)propoxy)phenyl)methanone]	> 7.00	≥ 7.30		
O=C(c1ccc(OC[C@H](O)Cn2ccnn2)cc1)N1CC[C@H](c2ccc(Cl)cc2)C1 [Example 32, ((R)-3-(4-chlorophenyl)pyrrolidin-1-yl)(4-((R)-2-hydroxy-3-(1H-1,2,3-triazol-1-yl)propoxy)phenyl)methanone]	> 7.00	≥ 7.30		
O=C(c1ccc(OC[C@H](O)Cn2cnnn2)cc1F)N1CC[C@H](c2ccc(Cl)cc2)C1 [Example 33, ((R)-3-(4-chlorophenyl)pyrrolidin-1-yl) (2-fluoro-4-((R)-2-hydroxy-3-(1H-tetrazol-1-yl)propoxy)phenyl)methanone]	6.30 to 7.00			
O=C(c1ccc(OC[C@H](O)Cn2ncnn2)cc1F)N1CC[C@H](c2ccc(Cl)cc2)C1 [Example 34, ((R)-3-(4-chlorophenyl)pyrrolidin-1-yl) (2-fluoro-4-((R)-2-hydroxy-3-(2H-tetrazol-2-yl)propoxy)phenyl)methanone]	> 7.00			
N[C@@H](COc1ccc(C(=O)N2CC[C@H](c3ccc(Cl)cc3)C2)cc1)Cn1cnnn1 [Example 47, (4-((R)-2-amino-3-(1H-tetrazol-1-yl)propoxy)phenyl)((R)-3-(4-chlorophenyl)pyrrolidin-1-yl)methanone]	> 7.00		< 0.1 µM	
N[C@@H](COc1ccc(C(=O)N2CC[C@H](c3ccc(Cl)cc3)C2)cc1)Cn1ncnn1 [Example 48, (4-((R)-2-amino-3-(2H-tetrazol-2-yl)propoxy)phenyl)((R)-3-(4-chlorophenyl)pyrrolidin-1-yl)methanone]	> 7.00	≥ 7.30		
N[C@@H](COc1ccc(C(=O)N2CC[C@H](c3ccc(F)cc3)C2)cc1)Cn1cccn1 [Example 55, (4-((R)-2-amino-3-(1H-pyrazol-1-yl)propoxy)phenyl)((R)-3-(4-fluorophenyl)pyrrolidin-1-yl)methanone, Hydrochloride]	6.30 to 7.00			
N[C@@H](COc1ccc(C(=O)N2CC[C@H](c3ccc(F)cc3)C2)c(F)c1)Cn1ncnn1 [Example 56, (4-((R)-2-amino-3-(2H-tetrazol-2-yl)propoxy)-2-fluorophenyl)((R)-3-(4-fluorophenyl)pyrrolidin-1-yl)methanone, Hydrochloride]	6.30 to 7.00			

Further lines, results first:

pIC50 [1]	pIC50 (read-out: average PfIC50)	IC50	pIC50 [2]	Compound
> 7.00				Cn1nnc(C[C@@H](O)COc2ccc(C(=O)N3CC[C@H](c4ccc(F)cc4)C3)cc2)n1 [Example 23, ((R)-3-(4-fluorophenyl)pyrrolidin-1-yl)(4-((R)-2-hydroxy-3-(2-methyl-2H-tetrazol-5-yl)propoxy)phenyl)methanone]
6.30 to 7.00				Cn1nnnc1C[C@@H](O)COc1ccc(C(=O)N2CC[C@H](c3ccc(F)cc3)C2)cc1 [Example 24, ((R)-3-(4-fluorophenyl)pyrrolidin-1-yl)(4-((R)-2-hydroxy-3-(1-methyl-1H-tetrazol-5-yl)propoxy)phenyl)methanone]
5.30 to 6.00				O=C(c1ccc(OC[C@H](O)Cc2nnn[nH]2)cc1)N1CC[C@H](c2ccc(F)cc2)C1 [Example 25, ((R)-3-(4-fluorophenyl)pyrrolidin-1-yl)(4-((R)-2-hydroxy-3-(1H-tetrazol-5-yl)propoxy)phenyl)methanone]
> 7.00	≥ 7.30			O=C(c1ccc(OC[C@H](O)Cn2ncnn2)cc1)N1CC[C@H](c2ccc(Cl)cc2)C1 [Example 29, ((R)-3-(4-chlorophenyl)pyrrolidin-1-yl)(4-((R)-2-hydroxy-3-(2H-tetrazol-2-yl)propoxy)phenyl)methanone]
6.30 to 7.00				NC(=O)c1nnn(C[C@@H](O)COc2ccc(C(=O)N3CC[C@H](c4ccc(F)cc4)C3)cc2)n1 [Example 38, 2-((R)-3-(4-((R)-3-(4-Fluorophenyl)pyrrolidine-1-carbonyl)phenoxy)-2-hydroxypropyl)-2H-tetrazole-5-carboxamide]
6.30 to 7.00				N#Cc1nnn(C[C@@H](O)COc2ccc(C(=O)N3CC[C@H](c4ccc(F)cc4)C3)cc2)n1 [Example 39, 2-((R)-3-(4-((R)-3-(4-Fluorophenyl)pyrrolidine-1-carbonyl)phenoxy)-2-hydroxypropyl)-2H-tetrazole-5-carbonitrile]
> 7.00	7.74	< 0.1 µM	7.52	N[C@@H](COc1ccc(C(=O)N2CC[C@H](c3ccc(F)cc3)C2)cc1)Cn1ncnn1 [Example 45, (4-((R)-2-Amino-3-(2H-tetrazol-2-yl)propoxy)phenyl)((R)-3-(4-fluorophenyl)pyrrolidin-1-yl)methanone]
> 7.00				N[C@@H](COc1ccc(C(=O)N2CC[C@H](c3ccc(F)cc3)C2)cc1)Cn1cnnn1 [Example 46, (4-((R)-2-amino-3-(1H-tetrazol-1-yl)propoxy)phenyl)((R)-3-(4-fluorophenyl)pyrrolidin-1-yl)methanone]
6.30 to 7.00			6.51	N[C@H](COc1ccc(C(=O)N2CC[C@H](c3ccc(F)cc3)C2)cc1)Cn1ncnn1 [Example 49, (4-((S)-2-amino-3-(2H-tetrazol-2-yl)propoxy)phenyl)((R)-3-(4-fluorophenyl)pyrrolidin-1-yl)methanone, Hydrochloride]
6.30 to 7.00			6.66	N[C@@H](COc1ccc(C(=O)N2CC[C@@H](c3ccc(F)cc3)C2)cc1)Cn1ncnn1 [Example 50, (4-((R)-2-amino-3-(2H-tetrazol-2-yl)propoxy)phenyl)((S)-3-(4-fluorophenyl)pyrrolidin-1-yl)methanone, Hydrochloride]
			< 5.30	Cl.N[C@H](COc1ccc(C(=O)N2CC[C@@H](c3ccc(F)cc3)C2)cc1)Cn1ncnn1 [Example 51, (4-((S)-2-amino-3-(2H-tetrazol-2-yl)propoxy)phenyl)((S)-3-(4-fluorophenyl)pyrrolidin-1-yl)methanone, Hydrochloride]
6.30 to 7.00				N[C@@H](COc1ccc(C(=O)N2CC[C@H](c3ccc(F)cc3)C2)cc1)Cn1cncn1 [Example 52, (4-((R)-2-amino-3-(1H-1,2,4-triazol-1-yl)propoxy)phenyl)((R)-3-(4-fluorophenyl)pyrrolidin-1-yl)methanone, Hydrochloride]
> 7.00				N[C@@H](COc1ccc(C(=O)N2CC[C@H](c3ccc(F)cc3)C2)cc1)Cn1nccn1 [Example 53, (4-((R)-2-amino-3-(2H-1,2,3-triazol-2-yl)propoxy)phenyl)((R)-3-(4-fluorophenyl)pyrrolidin-1-yl)methanone, Hydrochloride]
